Measured values taken from patent publication US20250205256A1 (GH RESEARCH IRELAND LIMITED, priority 2022, published 2025).
“And” between values parts separate entries of the source, which are not always exact repeats. Identical values can stand only once.

What was measured:
[1] = tested on: Salmonella typhimurium strains TA98, TA100, TA1535 and TA1537; assay: Bacterial mutation test, Salmonella typhimurium; type: cell-based; conditions: up to 5000 μg/plate, absence and presence of rat liver S-9
Procedure: (§1) These conditions included treatments at concentrations up to 5000 μg/plate (the maximum recommended concentration according to current regulatory guidelines), in the absence and in the presence of a rat liver metabolic activation system (S-9).

[2] = tested on: Escherichia coli strain WP2 uvrA pKM101; assay: Bacterial mutation test, Escherichia coli; type: cell-based; conditions: up to 5000 μg/plate, absence and presence of rat liver S-9
Procedure: as §1

[3] = Pharmacokinetics after single inhaled dose of 5-MeO-DMT (LC-MS/MS); type: in vivo, human
Procedure: Blood samples were obtained at 1; 2; 4; 7; 10; 15; 20; 30; 45 min and 1; 1.5; 2; 3; 4 hours after administration.
PK parameters were generated by algebraic analysis of the concentration versus time plots for each individual. The analysis was carried out using the software Phoenix WinNonlin 6.3.

[4] = tested on: patients with treatment-resistant major depressive disorder (TRD); assay: Phase 1/2 clinical trial of inhaled 5-MeO-DMT in TRD: safety and tolerability
Procedure: This trial was designed in two parts. Part A was an open-label, single-arm, single-dose Phase 1 trial with two dose levels (12 mg (n=4) and 18 mg (n=4)). […] The primary endpoint of Part B was to assess the effects on the severity of depression, as assessed by the proportion of patients in remission on day seven after dosing, defined as a MADRS total score of less than or equal to 10.

[5] = tested on: patient with postpartum depression (PPD); assay: Clinical trial of inhaled 5-MeO-DMT (IDR, 6 mg then 12 mg) in postpartum depression: MADRS; type: in vivo, human; conditions: for Total MADRS score: baseline 29
Excerpt: (§2) The patient completed all planned visit days.

[6] = tested on: patient with postpartum depression (PPD); assay: Clinical trial of inhaled 5-MeO-DMT (IDR, 6 mg then 12 mg) in postpartum depression: BPRS; type: in vivo, human; conditions: PPD n=1
Excerpt: as §2

[7] = tested on: patient with postpartum depression (PPD); assay: Clinical trial of inhaled 5-MeO-DMT in postpartum depression: Barkin Index of Maternal Functioning (BIMF); type: in vivo, human; conditions: PPD n=1
Excerpt: Maternal functioning can, for instance, be assessed using the Barkin Index of Maternal Functioning (BIMF). This index was designed to measure functioning in the year after childbirth. The BIMF is a 20-item self-report measure of functioning. Each item is assigned a score between 0 and 6 so that the maximum total score is 120. The higher the score, the better maternal functioning is rated.
The BIMF identifies the key functional domains of a mother during the postnatal period as: self-care, infant care, mother-child interaction, psychological wellbeing of the mother, social support, management, and adjustment.
as §2

[8] = tested on: patient with postpartum depression (PPD); assay: Clinical trial of inhaled 5-MeO-DMT in postpartum depression: safety and tolerability; type: in vivo, human; conditions: PPD n=1
Excerpt: as §2

Compound: COc1ccc2[nH]cc(CCN(C)C)c2c1 [5-MeO-DMT]
- induction of mutation [1]: did not induce mutation
- induction of mutation [2]: did not induce mutation
- detectability in plasma ([3]; 3 hours after inhalation, whole dose range): no longer detectable
- pharmacokinetic measurements under uptitration dosing schemes ([3]; compared with single doses): Substantially similar results were obtained
- accumulation upon repeated administration ([3]; repeat within 1 to 4 hours): No accumulation is observed
- changes in safety laboratory analyses, vital signs, psychiatric safety assessments or measures of cognitive function ([4]; Part A and Part B): No clinically significant changes
- severity and outcome of ADRs ([4]; Part A, 12 mg and 18 mg groups): mild and resolved spontaneously
- patients experiencing at least one ADR ([4]; Part A, 12 mg single dose, n=4): 3 of 4
- patients experiencing at least one ADR ([4]; Part A, 18 mg single dose, n=4): 3 of 4
- SAEs ([4]; Part B, IDR): No SAEs were reported
- outcome of ADRs ([4]; Part B, IDR): All ADRs resolved spontaneously
- patients experiencing at least one ADR ([4]; Part B, IDR, 7 of 8 patients): 87.5%
- MADRS response (at least 50% improvement) and MADRS remission (total score ≤10) criteria ([5]; PPD n=1): fulfilled standard criteria
- time to clinical response after administration ([5]; PPD n=1): ≤ 2 h
- time to clinical remission after administration ([5]; PPD n=1, IDR): ≤ 2 h
- Total MADRS improvement ([5]; PPD n=1, 2 hr vs baseline): 24
- Total MADRS score ([5]; PPD n=1, 2 hr): 5
- MADRS Lassitude score ([5]; PPD n=1, Day 1, baseline 3): 0
- Total MADRS score ([5]; PPD n=1, Day 1): 0
- Total MADRS improvement ([5]; PPD n=1, Day 1 vs baseline): 29
- Total MADRS score ([5]; PPD n=1, Day 7): 1
- Total MADRS improvement ([5]; PPD n=1, Day 7 vs baseline): 28
- durability of clinical response ([5]; PPD n=1, single treatment day): sustained over the 7-day follow-up period
- BPRS Tension improvement ([6]; Day 1 vs baseline): 5
- BPRS Tension improvement ([6]; Discharge vs baseline): 5
- BIMF total score improvement, percent ([7]; Day 7, from 92 to 105): 14%
- BIMF item 16 (I worry about how other people judge me (as a mother)) score ([7]; Day 7, Day 0 score 3): 5
- BIMF item 10 (I trust my own feelings (instincts) when taking care of my baby) score ([7]; Day 7, Day 0 score 5): 6
- BIMF functional domain Adjustment score ([7]; Day 7, Day 0 score 5, maximum 12): 6
- BIMF functional domain Self Care score ([7]; Day 7, Day 0 score 9, maximum 18): 13
- BIMF functional domain Infant Care score ([7]; Day 7, Day 0 score 12, maximum 12): 12
- BIMF functional domain Mother-Child Interaction score ([7]; Day 7, Day 0 score 15, maximum 18): 17
- BIMF functional domain Social Support score ([7]; Day 7, Day 0 score 17, maximum 18): 18
- BIMF functional domain Management score ([7]; Day 7, Day 0 score 28, maximum 36): 33
- BIMF functional domain Psychological Well-being score ([7]; Day 7, Day 0 score 44, maximum 60): 53
- BIMF TOTAL Δ (Day 7) ([7]; Day 7 vs Day 0): 13
- BIMF functional domain Adjustment % Improvement ([7]; Day 7 vs Day 0): 20.00%
- BIMF functional domain Adjustment Δ (Day 7) ([7]; Day 7 vs Day 0): 1
- BIMF functional domain Infant Care % Improvement ([7]; Day 7 vs Day 0): 0.00%
- BIMF functional domain Infant Care Δ (Day 7) ([7]; Day 7 vs Day 0): 0
- BIMF functional domain Management % Improvement ([7]; Day 7 vs Day 0): 18% and 17.86%
- BIMF functional domain Management Δ (Day 7) ([7]; Day 7 vs Day 0): 5
- BIMF functional domain Mother-Child Interaction % Improvement ([7]; Day 7 vs Day 0): 13.33%
- BIMF functional domain Mother-Child Interaction Δ (Day 7) ([7]; Day 7 vs Day 0): 2
- BIMF functional domain Psychological Well-being % Improvement ([7]; Day 7 vs Day 0): 20.45%
- BIMF functional domain Psychological Well-being Δ (Day 7) ([7]; Day 7 vs Day 0): 9
- BIMF functional domain Self Care % Improvement ([7]; Day 7 vs Day 0): 44% and 44.44%
- BIMF functional domain Self Care Δ (Day 7) ([7]; Day 7 vs Day 0): 4
- BIMF functional domain Social Support % Improvement ([7]; Day 7 vs Day 0): 5.88%
- BIMF functional domain Social Support Δ (Day 7) ([7]; Day 7 vs Day 0): 1
- BIMF item 1 (I am a good mother) Δ (Day 7) ([7]; Day 7 vs Day 0): 0
- BIMF item 2 (I feel rested) Δ (Day 7) ([7]; Day 7 vs Day 0): 2
- BIMF item 3 (comfortable with the way I've chosen to feed my baby) Δ (Day 7) ([7]; Day 7 vs Day 0): 0
- BIMF item 4 (My baby and I understand each other) Δ (Day 7) ([7]; Day 7 vs Day 0): 0
- BIMF item 5 (able to relax and enjoy time with my baby) Δ (Day 7) ([7]; Day 7 vs Day 0): 1
- BIMF item 6 (people I can trust to care for my baby when I need a break) Δ (Day 7) ([7]; Day 7 vs Day 0): 0
- BIMF item 8 (getting enough adult interaction) Δ (Day 7) ([7]; Day 7 vs Day 0): 0
- BIMF item 9 (getting enough encouragement from other people) Δ (Day 7) ([7]; Day 7 vs Day 0): 1
- BIMF item 10 (I trust my own feelings (instincts) when taking care of my baby) Δ (Day 7) ([7]; Day 7 vs Day 0): 1
- BIMF item 11 (a little time each week to do something for myself) Δ (Day 7) ([7]; Day 7 vs Day 0): 1
- BIMF item 12 (taking good care of my baby's physical needs) Δ (Day 7) ([7]; Day 7 vs Day 0): 0
- BIMF item 13 (taking good care of my physical needs) Δ (Day 7) ([7]; Day 7 vs Day 0): 1
- BIMF item 14 (good decisions about my baby's health and well being) Δ (Day 7) ([7]; Day 7 vs Day 0): 0
- BIMF item 15 (My baby and I are getting into a routine) Δ (Day 7) ([7]; Day 7 vs Day 0): 1
- BIMF item 16 (I worry about how other people judge me (as a mother)) Δ (Day 7) ([7]; Day 7 vs Day 0): 2
- BIMF item 17 (able to take care of my baby and my other responsibilities) Δ (Day 7) ([7]; Day 7 vs Day 0): 0
- BIMF item 18 (Anxiety or worry often interferes with my mothering ability) Δ (Day 7) ([7]; Day 7 vs Day 0): 3
- BIMF item 19 (getting better at taking care of my baby) Δ (Day 7) ([7]; Day 7 vs Day 0): 1
- BIMF item 20 (satisfied with the job I am doing as a new mother) Δ (Day 7) ([7]; Day 7 vs Day 0): −1
- reported adverse events (cramping left abdominal pain and headache, Day 0) [8]: mild, short-lasting and resolved spontaneously
- tolerability of inhalation procedure [8]: well tolerated with no inhalation-related adverse events
- ECG, safety laboratory analyses, CADSS ([8]; ECG 3 hours, laboratory 7 days, CADSS 3 hours, 1 day and 7 days): unremarkable
- changes in vital parameters ([8]; shortly after administration): temporary, clinically non-relevant increase in heart rate and blood pressure
